Where two headings read alike, the source gives them in different places.

For assay [1], the system named is WT (wild-type HIV virus; recombinant NL4-3 virus). Nature of the assay: microbe, parasite or virus in culture. Type of assay: cell-based, HIV-1. The method, then: (§1) MT-2 cells and 293T cells were obtained from the NIH AIDS Research and Reference Reagent Program. MT-2 cells were propagated in RPMI 1640 media supplemented with 10% heat-inactivated fetal bovine serum, […]. The 293T cells were propagated in DMEM media supplemented with 10% heat-inactivated fetal bovine serum (FBS), 100 units/mL penicillin G and 100 μg/mL streptomycin. […] A recombinant NL4-3 virus, in which a section of the nef gene from NL4-3 was replaced with the Renilla luciferase gene, was used as a reference virus. In addition, residue Gag P373 was converted to P373S. […] Transfections were performed in 293T cells using LipofectAMINE PLUS from Invitrogen (Carlsbad, Calif.), according to manufacturer's instruction. The virus was titered in MT-2 cells using luciferase enzyme activity as a marker. Luciferase was quantitated using the Dual Luciferase kit from Promega (Madison, Wis.), with modifications to the manufacturer's protocol. The diluted Passive Lysis solution was pre-mixed with the re-suspended Luciferase Assay Reagent and the re-suspended Stop & Glo Substrate (2:1:1 ratio). Fifty (50) μL of the mixture was added to each aspirated well on assay plates and luciferase activity was measured immediately on a Wallac TriLux (Perkin-Elmer). Antiviral activities of inhibitors toward the recombinant virus were quantified by measuring luciferase activity in cells infected for 4-5 days with NLRluc recombinants in the presence serial dilutions of the inhibitor.
WT refers to wild-type HIV virus. […]

Assay [2] deals with HIV-1 NL4-3 gag A364V virus. The assay can be described thus: microbe, parasite or virus in culture. Type of assay: cell-based. The method, then:
as §1
Both recombinant viruses were used as described above in the HIV cell culture assay for the NL4-3 virus.

[3] abbreviates: Human immunodeficiency virus 1, NL43, MT2, read-out: WT (EC50, uM), Table 1 regular screen, class symbol.
The mark [4] stands for this setting: Human immunodeficiency virus 1, NL43, MT2, read-out: A364V (EC50, uM), Table 1 regular screen, class symbol.
Where [5] appears, read: Human immunodeficiency virus 1, NL43, MT2, read-out: WT (EC50, uM), Table 1 regular screen, MT-2 cells, luciferase readout.
The mark [6] stands for this setting: Human immunodeficiency virus 1, NL43, MT2, read-out: A364V (EC50, uM), Table 1 regular screen, MT-2 cells, luciferase readout.

`C=C(C)[C@@H]1CC[C@]2(NCCN3CCS(=O)(=O)CC3C(=O)OCC)CC[C@]3(C)[C@H](CC[C@@H]4[C@@]5(C)CC=C(C6=CC[C@@](CF)(C(=O)O)CC6)C(C)(C)[C@@H]5CC[C@]43C)[C@@H]12` (single isomer, unassigned) [Example 14]: the EC50 in assay [1] (setting [3]) and in assay [2] (setting [4]) was < 0.05 µM each time.
With `C=C(C)[C@@H]1CC[C@]2(NC(CN)C(F)(F)F)CC[C@]3(C)[C@H](CC[C@@H]4[C@@]5(C)CC=C(C6=CC[C@](CF)(C(=O)O)CC6)C(C)(C)[C@@H]5CC[C@]43C)[C@@H]12` (single isomer, unassigned) [Example 39], the half-maximal effective concentration (EC50) (as a rule, the concentration at which the effect is half-maximal) amounted to 0.0473 µM in assay [1] (setting [5]) and 2.03 µM in assay [2] (setting [6]).
On to `C=C(C)[C@@H]1CC[C@]2(NC(CN)C(F)(F)F)CC[C@]3(C)[C@H](CC[C@@H]4[C@@]5(C)CC=C(C6=CC[C@](CF)(C(=O)O)CC6)C(C)(C)[C@@H]5CC[C@]43C)[C@@H]12` (single isomer, unassigned) [Example 40], for which the EC50 in assay [1] (read-out: WT (EC50), Table 1 regular screen, MT-2 cells, luciferase readout) was determined as 0.0687 µM; in assay [2] (read-out: A364V (EC50), Table 1 regular screen, MT-2 cells, luciferase readout) it was 3 µM.
`C=C(C)[C@@H]1CC[C@]2(NC(CN3CCS(=O)(=O)CC3)C(F)(F)F)CC[C@]3(C)[C@H](CC[C@@H]4[C@@]5(C)CC=C(C6=CC[C@](CF)(C(=O)O)CC6)C(C)(C)[C@@H]5CC[C@]43C)[C@@H]12` (single isomer, unassigned) [Example 42]: the 50% effective concentration (EC50) in assay [1] (setting [3]) and in assay [2] (setting [4]) was > 0.05 µM in each case.
Take `C=C(C)[C@@H]1CC[C@]2(NCCN3C[C@@H]4CC3CS4(=O)=O)CC[C@]3(C)[C@H](CC[C@@H]4[C@@]5(C)CC=C(C6=CC[C@](CF)(C(=O)O)CC6)C(C)(C)[C@@H]5CC[C@]43C)[C@@H]12` (stereo in doubt) [Example 4, (S)-4-((1R,3aS,5aR,5bR,7aR,11aS,11bR,13aR,13bR)-3a-((2-((1S,4S)-2,2-dioxido-2-thia-5-azabicyclo[2.2.1]heptan-5-yl)ethyl)amino)-5a,5b, 8,8,11a-pentamethyl-1-(prop-1-en-2-yl)-2,3,3a,4,5,5a,5b,6,7,7a,8,11,11a,11b,12,13,13a,13b-octadecahydro-1H-cyclopenta[a]chrysen-9-yl)-1-(fluoromethyl)cyclohex-3-enecarboxylic acid]: the EC50 in assay [1] (setting [5]) amounted to 0.00141 µM; in assay [2] (setting [6]) it was 0.0392 µM.
For `C=C(C)[C@@H]1CC[C@]2(NCCC(C)(C)O)CC[C@]3(C)[C@H](CC[C@@H]4[C@@]5(C)CC=C(C6=CC[C@](CF)(C(=O)O)CC6)C(C)(C)[C@@H]5CC[C@]43C)[C@@H]12` [Example 2-1, (S)-1-(fluoromethyl)-4-((1R,3aS,5aR,5bR,7aR,11aS,11bR,13aR,13bR)-3a-((3-hydroxy-3-methylbutyl)amino)-5a,5b,8,8,11a-pentamethyl-1-(prop-1-en-2-yl)-2,3,3a,4,5,5a,5b,6,7,7a,8,11,11a,11b,12,13,13a,13b-octadecahydro-1H-cyclopenta[a]chrysen-9-yl)cyclohex-3-enecarboxylic acid], the concentration giving a half-maximal response (EC50) in assay [1] (setting [3]) is < 0.05 µM; in assay [2] (setting [4]), > 0.05 µM.
On the same counts, the results for `C=C(C)[C@@H]1CC[C@]2(NCC(C)(C)O)CC[C@]3(C)[C@H](CC[C@@H]4[C@@]5(C)CC=C(C6=CC[C@](CF)(C(=O)O)CC6)C(C)(C)[C@@H]5CC[C@]43C)[C@@H]12` [Example 2-2, (S)-1-(fluoromethyl)-4-((1R,3aS,5aR,5bR,7aR,11aS,11bR,13aR,13bR)-3a-((2-hydroxy-2-methylpropyl)amino)-5a,5b,8,8,11a-pentamethyl-1-(prop-1-en-2-yl)-2,3,3a,4,5,5a,5b,6,7,7a,8,11,11a,11b,12,13,13a,13b-octadecahydro-1H-cyclopenta[a]chrysen-9-yl)cyclohex-3-enecarboxylic acid] are < 0.05 µM and > 0.05 µM.
On the same counts, the results for `C=C(C)[C@@H]1CC[C@]2(NCCCC(C)(C)O)CC[C@]3(C)[C@H](CC[C@@H]4[C@@]5(C)CC=C(C6=CC[C@](CF)(C(=O)O)CC6)C(C)(C)[C@@H]5CC[C@]43C)[C@@H]12` [Example 2-3, (S)-1-(fluoromethyl)-4-((1R,3aS,5aR,5bR,7aR,11aS,11bR,13aR,13bR)-3a-((4-hydroxy-4-methylpentyl)amino)-5a,5b,8,8,11a-pentamethyl-1-(prop-1-en-2-yl)-2,3,3a,4,5,5a,5b,6,7,7a,8,11,11a,11b,12,13,13a,13b-octadecahydro-1H-cyclopenta[a]chrysen-9-yl)cyclohex-3-enecarboxylic acid] are < 0.05 µM and > 0.05 µM.
As to `C=C(C)[C@@H]1CC[C@]2(NCCC(O)(CC)CC)CC[C@]3(C)[C@H](CC[C@@H]4[C@@]5(C)CC=C(C6=CC[C@](CF)(C(=O)O)CC6)C(C)(C)[C@@H]5CC[C@]43C)[C@@H]12` [Example 2-4, (S)-4-((1R,3aS,5aR,5bR,7aR,11aS,11bR,13aR,13bR)-3a-((3-ethyl-3-hydroxypentyl)amino)-5a,5b,8,8,11a-pentamethyl-1-(prop-1-en-2-yl)-2,3,3a,4,5,5a,5b,6,7,7a,8,11,11a,11b,12,13,13a,13b-octadecahydro-1H-cyclopenta[a]chrysen-9-yl)-1-(fluoromethyl)cyclohex-3-enecarboxylic acid], the EC50 in assay [1] (setting [3]) was < 0.05 µM; in assay [2] (setting [4]), > 0.05 µM.
In the case of `C=C(C)[C@@H]1CC[C@]2(NCC=C(C3CC3)C3CC3)CC[C@]3(C)[C@H](CC[C@@H]4[C@@]5(C)CC=C(C6=CC[C@](CF)(C(=O)O)CC6)C(C)(C)[C@@H]5CC[C@]43C)[C@@H]12` [Example 2-6, (S)-4-((1R,3aS,5aR,5bR,7aR,11aS,11bR,13aR,13bR)-3a-((3,3-dicyclopropylallyl)amino)-5a,5b,8,8,11a-pentamethyl-1-(prop-1-en-2-yl)-2,3,3a,4,5,5a,5b,6,7,7a,8,11,11a,11b,12,13,13a,13b-octadecahydro-1H-cyclopenta[a]chrysen-9-yl)-1-(fluoromethyl)cyclohex-3-enecarboxylic acid], the EC50 came to 0.011 µM in assay [1] (setting [5]) and 3 µM in assay [2] (setting [6]).
On the same counts, the results for `C=C(C)[C@@H]1CC[C@]2(NCCC(C)C)CC[C@]3(C)[C@H](CC[C@@H]4[C@@]5(C)CC=C(C6=CC[C@](CF)(C(=O)O)CC6)C(C)(C)[C@@H]5CC[C@]43C)[C@@H]12` [Example 2-7, (S)-1-(fluoromethyl)-4-((1R,3aS,5aR,5bR,7aR,11aS,11bR,13aR,13bR)-3a-(isopentylamino)-5a,5b,8,8,11a-pentamethyl-1-(prop-1-en-2-yl)-2,3,3a,4,5,5a,5b,6,7,7a,8,11,11a,11b,12,13,13a,13b-octadecahydro-1H-cyclopenta[a]chrysen-9-yl)cyclohex-3-enecarboxylic acid] are 0.116 µM and 3 µM.
Take `C=C(C)[C@@H]1CC[C@]2(NCC(O)CN3CCS(=O)(=O)CC3)CC[C@]3(C)[C@H](CC[C@@H]4[C@@]5(C)CC=C(C6=CC[C@](CF)(C(=O)O)CC6)C(C)(C)[C@@H]5CC[C@]43C)[C@@H]12` (stereo partly drawn) [Example 2-8, (1S)-4-((1R,3aS,5aR,5bR,7aR,11aS,11bR,13aR,13bR)-3a-((3-(1,1-dioxidothiomorpholino)-2-hydroxypropyl)amino)-5a,5b, 8,8,11a-pentamethyl-1-(prop-1-en-2-yl)-2,3,3a,4,5,5a,5b,6,7,7a,8,11,11a,11b,12,13,13a,13b-octadecahydro-1H-cyclopenta[a]chrysen-9-yl)-1-(fluoromethyl)cyclohex-3-enecarboxylic acid]: the concentration for a half-maximal effect (EC50) in assay [1] (setting [5]) is 0.00233 µM; in assay [2] (setting [6]), 1.91 µM.
Turning to `C=C(C)[C@@H]1CC[C@]2(NCCC3(O)CCC3)CC[C@]3(C)[C@H](CC[C@@H]4[C@@]5(C)CC=C(C6=CC[C@](CF)(C(=O)O)CC6)C(C)(C)[C@@H]5CC[C@]43C)[C@@H]12` [Example 2-9, (S)-1-(fluoromethyl)-4-((1R,3aS,5aR,5bR,7aR,11aS,11bR,13aR,13bR)-3a-((2-(1-hydroxycyclobutyl)ethyl)amino)-5a,5b,8,8,11a-pentamethyl-1-(prop-1-en-2-yl)-2,3,3a,4,5,5a,5b,6,7,7a,8,11,11a,11b,12,13,13a,13b-octadecahydro-1H-cyclopenta[a]chrysen-9-yl)cyclohex-3-enecarboxylic acid], the EC50 in assay [1] (setting [3]) is < 0.05 µM; in assay [2] (setting [4]) it was > 0.05 µM.

Source of the values: US10245275B2 (ViiV HEALTHCARE UK (NO.4) LIMITED, priority 2014, dated 2019).
